Reference: ChEMBL document CHEMBL1201862, “PubChem BioAssay data set” (2004)
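Where inhibition never reached the appropriate level, the endpoint shown equals the highest concentration tested. Otherwise, values were interpolated linearly from a five-concentration, 48-hour dose response in 96-well plates. GI50 marks 50% less growth.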 Activity calls are given as the source filed them. Rule as the data show it: active = GI50 up to about 1.1 µM and inactive = higher.

Assays:
Assay in all cases: growth of human tumour cells (NCI), 48 h
[1] = system: HOP-18
[2] = system: Malme-3M
[3] = system: NCI-H226
[4] = system: TK-10
[5] = system: EKVX
[6] = system: SNB-75
[7] = system: HT-29
[8] = system: OVCAR-3
[9] = system: RPMI-8226
[10] = system: NCI-H522
[11] = system: OVCAR-5
[12] = system: NCI-H23
[13] = system: SNB-19
[14] = system: HOP-92
[15] = system: CAKI-1
[16] = system: LXFL 529
[17] = system: 786-0
[18] = system: LOX IMVI
[19] = system: U-251
[20] = system: HL-60
[21] = system: HCT-15
[22] = system: SK-OV-3
[23] = system: DLD-1
[24] = system: HCC 2998
[25] = system: RXF 393
[26] = system: OVCAR-8
[27] = system: CCRF-CEM
[28] = system: XF498
[29] = system: SW-620
[30] = system: K562
[31] = system: SK-MEL-5
[32] = system: M19-MEL
[33] = system: SK-MEL-2
[34] = system: DMS-273
[35] = system: COLO 205
[36] = system: SK-MEL-28
[37] = system: HCT-116
[38] = system: MOLT-4
[39] = system: DMS-114
[40] = system: OVCAR-4
[41] = system: IGROV-1
[42] = system: A549
[43] = system: SF-268
[44] = system: UACC-257
[45] = system: ACHN
[46] = system: M14
[47] = system: HOP-62
[48] = system: SN12C
[49] = system: KM-20L2
[50] = system: SF-295
[51] = system: A498
[52] = system: NCI-H460
[53] = system: UACC-62
[54] = system: UO-31
[55] = system: KM12
[56] = system: SNB-78
[57] = system: SR
[58] = system: SF-539

## C=CCN1COc2c(cc3c4c(cccc24)C(=O)O3)C1
[1]
  GI50: > 100 µM (inactive)
[2]
  GI50: > 10 µM (inactive)
[3]
  GI50: > 100 µM (inactive)
[4]
  GI50: 21.7 µM (inactive)
[5]
  GI50: 35.7 µM (inactive)
[6]
  GI50: 23.8 µM (inactive)
[7]
  GI50: 23.8 µM (inactive)
[8]
  GI50: 25.2 µM (inactive)
[9]
  GI50: 33.6 µM (inactive)
[10]
  GI50: 14.1 µM (inactive)
[11]
  GI50: 36.6 µM (inactive)
[12]
  GI50: 21.4 µM (inactive)
[13]
  GI50: > 100 µM (inactive)
[14]
  GI50: 16.2 µM (inactive)
[15]
  GI50: 27.5 µM (inactive)
[16]
  GI50: 18.2 µM (inactive)
[17]
  GI50: 20.5 µM (inactive)
[18]
  GI50: > 10 µM (inactive)
[19]
  GI50: > 100 µM (inactive)
[20]
  GI50: 21.4 µM (inactive)
[21]
  GI50: 29.2 µM
[22]
  GI50: > 100 µM (inactive)
[23]
  GI50: 25.4 µM (inactive)
[24]
  GI50: > 100 µM (inactive)
[25]
  GI50: > 10 µM (inactive)
[26]
  GI50: > 100 µM (inactive)
[27]
  GI50: 19.6 µM (inactive)
[28]
  GI50: 20.2 µM (inactive)
[29]
  GI50: 25.4 µM (inactive)
[30]
  GI50: 15.5 µM (inactive)
[31]
  GI50: 44.1 µM (inactive)
[32]
  GI50: 18.7 µM (inactive)
[33]
  GI50: > 100 µM (inactive)
[34]
  GI50: 38.6 µM (inactive)
[35]
  GI50: 17.9 µM (inactive)
[36]
  GI50: 24.6 µM (inactive)
[37]
  GI50: 20.1 µM (inactive)
[38]
  GI50: 27 µM (inactive)
[39]
  GI50: 17.9 µM (inactive)
[40]
  GI50: 68.1 µM (inactive)
[41]
  GI50: > 100 µM (inactive)
[42]
  GI50: > 100 µM (inactive)
[43]
  GI50: 48.6 µM (inactive)
[44]
  GI50: 26.4 µM (inactive)
[45]
  GI50: > 10 µM (inactive)
[46]
  GI50: 22.9 µM (inactive)
[47]
  GI50: > 100 µM (inactive)
[48]
  GI50: 21 µM (inactive)
[49]
  GI50: 24.3 µM (inactive)
[50]
  GI50: 35.1 µM (inactive)
[51]
  GI50: 21.5 µM (inactive)
[52]
  GI50: 43.6 µM (inactive)
[53]
  GI50: 19.2 µM (inactive)
[54]
  GI50: 23.1 µM (inactive)
[55]
  GI50: 75.3 µM (inactive)

## C=CCc1c(O)c2c(c3oc(=O)cc(C)c13)CC(C)O2 (centres undefined)
[1]
  GI50: 90.2 µM (inactive)
[2]
  GI50: > 100 µM (inactive)
[3]
  GI50: 41.5 µM (inactive)
[4]
  GI50: > 100 µM (inactive)
[5]
  GI50: > 100 µM (inactive)
[6]
  GI50: > 100 µM (inactive)
[7]
  GI50: 57.7 µM (inactive)
[8]
  GI50: > 100 µM (inactive)
[9]
  GI50: 60.8 µM (inactive)
[10]
  GI50: > 100 µM (inactive)
[11]
  GI50: > 100 µM (inactive)
[12]
  GI50: > 100 µM (inactive)
[13]
  GI50: > 100 µM (inactive)
[15]
  GI50: > 100 µM (inactive)
[16]
  GI50: > 100 µM (inactive)
[18]
  GI50: 46.3 µM (inactive)
[19]
  GI50: > 100 µM (inactive)
[20]
  GI50: 86.7 µM (inactive)
[21]
  GI50: > 100 µM
[22]
  GI50: > 100 µM (inactive)
[23]
  GI50: 48.6 µM (inactive)
[24]
  GI50: > 100 µM (inactive)
[25]
  GI50: 67.8 µM (inactive)
[26]
  GI50: 65.3 µM (inactive)
[27]
  GI50: 50.4 µM (inactive)
[29]
  GI50: > 100 µM (inactive)
[30]
  GI50: > 100 µM (inactive)
[56]
  GI50: > 100 µM (inactive)
[57]
  GI50: > 100 µM (inactive)
[31]
  GI50: > 100 µM (inactive)
[32]
  GI50: 72.4 µM (inactive)
[33]
  GI50: > 100 µM (inactive)
[34]
  GI50: > 100 µM (inactive)
[37]
  GI50: > 100 µM (inactive)
[38]
  GI50: 56.5 µM (inactive)
[39]
  GI50: > 100 µM (inactive)
[40]
  GI50: > 100 µM (inactive)
[41]
  GI50: 20.2 µM (inactive)
[42]
  GI50: > 100 µM (inactive)
[43]
  GI50: > 100 µM (inactive)
[44]
  GI50: > 100 µM (inactive)
[45]
  GI50: > 100 µM (inactive)
[46]
  GI50: > 100 µM (inactive)
[47]
  GI50: > 100 µM (inactive)
[48]
  GI50: > 100 µM (inactive)
[49]
  GI50: > 100 µM (inactive)
[58]
  GI50: > 100 µM (inactive)
[50]
  GI50: > 100 µM (inactive)
[52]
  GI50: 52.5 µM (inactive)
[53]
  GI50: > 100 µM (inactive)
[54]
  GI50: 68.9 µM (inactive)

## O=C(/C=C/c1ccco1)c1ccc(NCc2nc3ccccc3[nH]2)cc1
[1]
  GI50: 20.9 µM (inactive)
[2]
  GI50: 19 µM (inactive)
[3]
  GI50: 1.73 µM (inactive)
[4]
  GI50: 17.9 µM (inactive)
[5]
  GI50: 14.6 µM (inactive)
[6]
  GI50: 15.8 µM (inactive)
[7]
  GI50: 19.8 µM (inactive)
[8]
  GI50: 16.6 µM (inactive)
[10]
  GI50: 9.62 µM (inactive)
[11]
  GI50: 17.7 µM (inactive)
[12]
  GI50: 13.5 µM (inactive)
[13]
  GI50: 15.6 µM (inactive)
[14]
  GI50: 12.2 µM (inactive)
[15]
  GI50: 17.2 µM (inactive)
[16]
  GI50: 14.3 µM (inactive)
[17]
  GI50: 14.6 µM (inactive)
[18]
  GI50: 12.2 µM (inactive)
[19]
  GI50: 10.9 µM (inactive)
[20]
  GI50: 13 µM (inactive)
[21]
  GI50: 15 µM
[22]
  GI50: 18.3 µM (inactive)
[23]
  GI50: 15 µM (inactive)
[24]
  GI50: 14.6 µM (inactive)
[26]
  GI50: 17.9 µM (inactive)
[27]
  GI50: 13 µM (inactive)
[29]
  GI50: 16 µM (inactive)
[30]
  GI50: 15.2 µM (inactive)
[56]
  GI50: 21.3 µM (inactive)
[57]
  GI50: 10.8 µM (inactive)
[31]
  GI50: 14.8 µM (inactive)
[32]
  GI50: 14.9 µM (inactive)
[33]
  GI50: 19.1 µM (inactive)
[34]
  GI50: 17.5 µM (inactive)
[35]
  GI50: 13.5 µM (inactive)
[36]
  GI50: 18 µM (inactive)
[38]
  GI50: 10.4 µM (inactive)
[39]
  GI50: 12 µM (inactive)
[40]
  GI50: 19.2 µM (inactive)
[41]
  GI50: 18.1 µM (inactive)
[43]
  GI50: 20 µM (inactive)
[44]
  GI50: 11.1 µM (inactive)
[45]
  GI50: 17.5 µM (inactive)
[46]
  GI50: 16.9 µM (inactive)
[47]
  GI50: 19.1 µM (inactive)
[48]
  GI50: 17.2 µM (inactive)
[49]
  GI50: 18.7 µM (inactive)
[58]
  GI50: 18 µM (inactive)
[50]
  GI50: 15.6 µM (inactive)
[51]
  GI50: 14.4 µM (inactive)
[52]
  GI50: 23.3 µM (inactive)
[53]
  GI50: 14 µM (inactive)
[54]
  GI50: 13.8 µM (inactive)
[55]
  GI50: 10.3 µM (inactive)
